Five molecules from publication PMC7016952, “Characterization of the Menin-MLL Interaction as Therapeutic Cancer Target” (Cancers, 2020) can be followed below.

Residues, ends and D or L forms follow the SMILES beside them. *: point of attachment. Cbz = O=C(OCc1ccccc1)*

Data set [1] has as its system T1, menin protein levels in VCaP cells.
T1 construct: endogenous in cells; host or cells: VCaP
The data set is described as follows: Western blot of menin protein level. The data set is classed as cell-based, human. For orientation: A western blot detects proteins with antibodies after separation by electrophoresis.

The subject of a further data set is Jurkat cells. As to the kind of experiment: Proliferation inhibition, Jurkat. The format is cell-based. Conditions: Homo sapiens, read-out: Potency IC50 Jurkat.
Another data set has as its system MOLM-13 cells. The data set is described as follows: Proliferation inhibition, MOLM-13. The format is cell-based, human. The conditions noted are these: Homo sapiens, proliferation, read-out: Potency IC50 MOLM-13.
The target in another data set is CYP 1A2 (Homo sapiens, UniProt P05177). The data set is described as follows: CYP inhibition 1A2. The data set is classed as in vitro ADME.
Another data set deals with CYP 2D6 (Homo sapiens, UniProt P10635). As to the kind of experiment: CYP inhibition 2D6. The data set is classed as in vitro ADME.
For data set [2], the system named is safety pharmacology relevant proteins (GPCRs, ion channels and transporters). As to the kind of experiment: Selectivity panel of safety pharmacology assays. Conditions: 10 µM.
The target of the next data set is CYP 2C9 (Homo sapiens, UniProt P11712). As to the kind of experiment: CYP inhibition 2C9. The format is in vitro ADME.
The test system of another data set is MV4;11 cells. The data set is described as follows: Proliferation inhibition, MV4;11. The format is cell-based, human. Conditions: Homo sapiens, MV4-11; proliferation; read-out: Potency IC50 MV4;11.
Data set [3] in a line: Metabolic stability in rat hepatocytes. Conditions: in vitro maximal bioavailability. The data set is classed as in vitro ADME. The procedure:
Liver cells were distributed at a density of 1.0 × 10^6 cells/mL and treated with 1 µM BAY-155 or MI-503. During incubation, the hepatocyte suspensions were continuously shaken, and aliquots were taken at 2, 8, 16, 30, 45, and 90 min, fixed with cold methanol and stored at −20 °C. Next, samples were centrifuged and the supernatant was analyzed with an LC-MS/MS. The compound half-life was determined from the concentration–time plot. The intrinsic clearances were calculated from the half-life, together with additional parameters (liver blood flow, quantity of liver cells in vivo and in vitro).

In the next data set the target is CYP 3A4 (Homo sapiens, UniProt P08684). The data set is described as follows: CYP inhibition 3A4. The data set is classed as in vitro ADME.
Another data set addresses T2, menin-MLL interaction (Homo sapiens, UniProt O00255).
T2 construct: recombinant full length, His-tagged menin
T2 sequence (O00255 1-610): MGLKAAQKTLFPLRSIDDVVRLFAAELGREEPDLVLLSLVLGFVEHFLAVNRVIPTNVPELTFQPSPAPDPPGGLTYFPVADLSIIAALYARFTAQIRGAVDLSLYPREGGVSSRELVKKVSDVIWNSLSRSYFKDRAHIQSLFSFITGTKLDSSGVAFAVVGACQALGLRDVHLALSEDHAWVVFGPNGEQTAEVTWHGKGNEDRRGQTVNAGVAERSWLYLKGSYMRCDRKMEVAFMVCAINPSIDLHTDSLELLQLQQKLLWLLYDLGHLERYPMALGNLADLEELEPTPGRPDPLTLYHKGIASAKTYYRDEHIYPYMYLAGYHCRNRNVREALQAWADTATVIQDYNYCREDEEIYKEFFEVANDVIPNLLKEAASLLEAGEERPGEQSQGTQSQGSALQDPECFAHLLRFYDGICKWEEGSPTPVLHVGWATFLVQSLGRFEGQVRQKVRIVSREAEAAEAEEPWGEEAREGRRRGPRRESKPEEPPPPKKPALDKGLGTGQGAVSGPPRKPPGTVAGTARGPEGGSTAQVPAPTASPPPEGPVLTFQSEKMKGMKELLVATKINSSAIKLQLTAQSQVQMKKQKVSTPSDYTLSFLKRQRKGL
The data set is described as follows: TR-FRET menin-MLL binding assay. The conditions noted are these: read-out: Potency IC50 Menin-MLL binding. In general terms: In TR-FRET formats the signal depends on donor and acceptor labels being close together.

In another data set the target is T3, menin (Homo sapiens, UniProt O00255).
T3 construct: purified menin (1–615 with GST-tag cleaved as described above); GST (TEV cleavable) (N, cleaved yes); made in house; host or cells: E. coli BL21 (DE3)
T3 sequence (O00255 1-615 isoform O00255-1): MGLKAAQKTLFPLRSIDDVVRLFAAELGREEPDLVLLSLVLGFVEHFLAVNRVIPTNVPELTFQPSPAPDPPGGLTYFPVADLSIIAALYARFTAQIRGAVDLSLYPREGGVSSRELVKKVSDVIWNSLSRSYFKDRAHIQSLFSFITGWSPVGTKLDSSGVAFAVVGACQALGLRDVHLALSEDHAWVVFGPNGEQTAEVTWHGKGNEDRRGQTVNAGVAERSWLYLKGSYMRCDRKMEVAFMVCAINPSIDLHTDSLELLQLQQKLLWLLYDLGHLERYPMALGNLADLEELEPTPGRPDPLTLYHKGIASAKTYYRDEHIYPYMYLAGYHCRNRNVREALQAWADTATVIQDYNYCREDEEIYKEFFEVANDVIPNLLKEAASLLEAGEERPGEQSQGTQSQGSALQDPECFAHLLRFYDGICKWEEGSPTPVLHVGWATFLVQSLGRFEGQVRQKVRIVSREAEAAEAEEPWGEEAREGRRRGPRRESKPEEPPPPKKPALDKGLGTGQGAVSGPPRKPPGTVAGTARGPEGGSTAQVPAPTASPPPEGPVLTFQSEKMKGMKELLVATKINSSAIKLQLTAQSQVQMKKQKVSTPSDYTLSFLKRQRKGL
The data set is described as follows: Isothermal Titration Calorimetry (ITC) on purified menin. The format is binding. The conditions noted are these: ITC, 25 °C, menin 1-615; read-out: KD. On the procedure: Cloning of expression vectors for recombinant menin was performed as follows. […] Proteins were expressed in E. coli BL21 (DE3) following 0.1 mM IPTG induction at 17 °C overnight. For purification, cell pellets were resuspended in buffer A (50 mM Tris pH 7.5, 300 mM NaCl, 2 mM DTT). Cells were lysed using a high pressure Microfluidics apparatus and the cell debris pelleted by centrifugation. The supernatant was applied to a GST column (GE Healthcare, Chicago, IL, USA), washed with two column volumes of washing buffer A and eluted with Buffer B (Buffer A plus 15 mM reduced glutathione). If necessary, the purification tag was cleaved off with the addition of His-TEV protease (1:20 mass ratio) during overnight incubation in buffer A. His-TEV was removed by IMAC column rebinding and final protein purification of either GST-cleaved or uncleaved menin-1 was performed by size exclusion chromatography using a HiLoad 16/60 Superdex 200 (GE Healthcare) column in buffer C (Buffer A but 50 mM NACl).
The compound was dissolved in 100% DMSO to a concentration of 10 mM and subsequently diluted to a final concentration of 5 µM in ITC Buffer. Isothermal Titration Calorimetry (ITC) was performed at 25 °C in a Microcal PEAQ-ITC (Malvern Panalytical). […] Reference Power was set to 6 μcal/s. Data were collected on high feedback mode. Analysis was performed with a single binding site model in the Microcal PEAQ-ITC Analysis Software (Malvern Panalytical).
(In general: ITC needs no label: the signal is the heat of the interaction.)

For a further data set, the system named is HL-60 cells. The data set is described as follows: Proliferation inhibition, HL-60. The data set is classed as cell-based. The conditions noted are these: Homo sapiens, read-out: Potency IC50 HL-60.
The next data set deals with CYP 2C8 (Homo sapiens, UniProt P10632). The data set is described as follows: CYP inhibition 2C8. The format is in vitro ADME.
Data set [4] concerns AR signaling pathway genes in VCaP tumor samples. As to the kind of experiment: Ex vivo gene expression in VCaP xenografts. On the set-up: species or system mice. Conditions: 52 days of treatment. The procedure:
(§1) Total RNA was isolated using RNeasy-Plus Mini kit (Qiagen, Hilden, Germany). RNA (1 μg) was reverse transcribed using SuperScript III First-Strand Synthesis SuperMix (Life Technologies) and the generated cDNA was analyzed with commercial primers (Supplementary Materials Table S1) by qRT-PCR using TaqMan Fast Advanced Master Mix (Life Technologies). For the RNA-seq study, ZR-75-1, BT474, PANC-1, MiaPaCa-2, 22RV1, JMSU-1, DLD-1, SW1463, LoVo and G401 cells were treated with 5 µM BAY-155 or DMSO for 48 h prior to RNA extraction. After 48 h of 5 µM BAY-155 or DMSO treatment, MCF7, VCaP and LNCaP cells were stimulated for further 12 h with 0.1 nM of E2 (ß-Estradiol) or 1 nM R1881, respectively. MCF7, VCaP and LNCaP cells were cultured in starvation medium (containing 5 µM BAY-155 or DMSO) 6 h before stimulation. RNA was isolated using RNeasy-Plus Mini kit (Qiagen). The purified RNA was used for library preparation (Illumina, San Diego, CA, USA. TruSeq Stranded mRNA Kit) and the generated libraries were sequenced (Illumina, HiSeq2500 HTv4, SR, dual-indexing, 50 cycles).
(§2) Tumors were harvested, dissociated and total RNA was extracted using the TissueLyser (Qiagen, Hilden, Germany) together with RNeasy-Plus Mini kit according to the manufacturer protocol.

A further data set concerns VCaP xenograft. As to the kind of experiment: VCaP xenograft efficacy. The data set is classed as in vivo, mice. The procedure:
(§3) Tumor cells were injected subcutaneously into the flanks of 6- to 9-week old animals. Efficacy studies in xenograft models were performed at Bayer or EPO GmbH (Berlin-Buch, Germany) using NMRI nu/nu, SCID, BALB/c Nude female mice or SCID male mice (VCaP tumors). All animal studies were conducted in accordance with the animal welfare laws and were approved by the State Office for Health and Social Affairs Berlin (LAGeSo). Experiments were run under the animal license B3600a0007. Compound treatment started at a predefined tumor size or burden or at a predefined day after cell inoculation. BAY-155 was administered orally (p.o.) at various doses and regorafenib, tamoxifen and enzalutamide (resuspended in PEG400/H2O 6/4 or PEG400/EtOH 9/1) were used as control treatment for RKO, MCF7 and VCaP xenografts, respectively. Subcutaneous tumor volumes were determined by caliper measurement.

A further data set deals with RKO xenograft. As to the kind of experiment: RKO xenograft efficacy. The format is in vivo, mice. The procedure:
as §3

A further data set has as its system MCF7 xenograft. The data set is described as follows: MCF7 xenograft efficacy. The format is in vivo, mice. The procedure:
as §3

For data set [5], the system named is ER signaling pathway genes in MCF7 tumor samples. As to the kind of experiment: Ex vivo gene expression in MCF7 xenografts. On the set-up: species or system mice. The conditions noted are these: 27 days of treatment. The procedure:
as §1, §2

Chain of CYP 3A4 (P08684 whole entry): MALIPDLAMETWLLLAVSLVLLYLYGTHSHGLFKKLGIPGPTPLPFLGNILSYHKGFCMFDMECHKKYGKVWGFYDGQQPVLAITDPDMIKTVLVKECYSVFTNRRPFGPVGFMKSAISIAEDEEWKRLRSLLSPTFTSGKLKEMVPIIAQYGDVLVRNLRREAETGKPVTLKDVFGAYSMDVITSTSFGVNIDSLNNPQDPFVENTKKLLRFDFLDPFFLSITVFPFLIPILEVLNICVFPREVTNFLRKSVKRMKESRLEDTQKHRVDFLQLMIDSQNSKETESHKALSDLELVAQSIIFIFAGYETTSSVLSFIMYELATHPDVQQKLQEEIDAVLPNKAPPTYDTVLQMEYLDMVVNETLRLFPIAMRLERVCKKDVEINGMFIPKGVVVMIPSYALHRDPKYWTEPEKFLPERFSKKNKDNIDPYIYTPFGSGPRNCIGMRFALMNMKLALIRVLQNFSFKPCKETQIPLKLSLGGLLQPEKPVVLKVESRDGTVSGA
Chain of CYP 2C8 (P10632 whole entry): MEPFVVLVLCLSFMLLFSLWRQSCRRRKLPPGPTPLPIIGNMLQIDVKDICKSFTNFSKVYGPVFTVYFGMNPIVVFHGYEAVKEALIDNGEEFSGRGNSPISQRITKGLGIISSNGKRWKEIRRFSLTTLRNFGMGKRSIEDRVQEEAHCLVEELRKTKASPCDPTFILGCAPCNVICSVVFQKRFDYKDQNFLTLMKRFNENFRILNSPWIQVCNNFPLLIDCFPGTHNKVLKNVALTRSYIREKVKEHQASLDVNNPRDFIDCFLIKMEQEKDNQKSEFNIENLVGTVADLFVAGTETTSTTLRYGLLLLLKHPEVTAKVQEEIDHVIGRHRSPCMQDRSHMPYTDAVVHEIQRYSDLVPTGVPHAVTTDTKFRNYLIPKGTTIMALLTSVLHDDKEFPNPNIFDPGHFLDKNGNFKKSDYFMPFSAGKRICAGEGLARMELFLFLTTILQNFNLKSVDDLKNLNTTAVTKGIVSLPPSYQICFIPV
Chain of CYP 2C9 (P11712 whole entry): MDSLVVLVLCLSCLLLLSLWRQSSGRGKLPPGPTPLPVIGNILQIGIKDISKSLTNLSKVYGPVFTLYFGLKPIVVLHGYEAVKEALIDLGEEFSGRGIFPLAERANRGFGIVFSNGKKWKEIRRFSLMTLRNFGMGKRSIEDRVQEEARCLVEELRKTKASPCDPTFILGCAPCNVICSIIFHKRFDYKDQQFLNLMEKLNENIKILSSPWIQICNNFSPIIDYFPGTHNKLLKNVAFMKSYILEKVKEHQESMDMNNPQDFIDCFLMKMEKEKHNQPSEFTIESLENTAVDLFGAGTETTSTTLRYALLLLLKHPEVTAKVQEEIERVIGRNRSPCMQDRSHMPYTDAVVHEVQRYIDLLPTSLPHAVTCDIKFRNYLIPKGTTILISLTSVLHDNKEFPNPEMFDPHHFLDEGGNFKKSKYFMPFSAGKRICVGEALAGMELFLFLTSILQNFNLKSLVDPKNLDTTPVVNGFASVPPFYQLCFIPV
Chain of CYP 2D6 (P10635 whole entry): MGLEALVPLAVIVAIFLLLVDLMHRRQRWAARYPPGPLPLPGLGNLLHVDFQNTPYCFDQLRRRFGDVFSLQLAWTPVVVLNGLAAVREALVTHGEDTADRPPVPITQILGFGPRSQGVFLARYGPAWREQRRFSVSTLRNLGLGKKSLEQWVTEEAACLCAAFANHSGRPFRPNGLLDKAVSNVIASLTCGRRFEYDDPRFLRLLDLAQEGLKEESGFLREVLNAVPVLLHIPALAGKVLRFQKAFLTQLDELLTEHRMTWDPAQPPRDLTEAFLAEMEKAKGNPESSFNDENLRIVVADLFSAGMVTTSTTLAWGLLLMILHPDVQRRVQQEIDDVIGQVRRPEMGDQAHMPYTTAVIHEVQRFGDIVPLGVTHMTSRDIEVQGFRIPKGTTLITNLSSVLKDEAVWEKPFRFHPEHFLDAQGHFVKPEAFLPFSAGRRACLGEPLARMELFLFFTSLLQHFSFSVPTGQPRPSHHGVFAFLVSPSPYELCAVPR
Chain of CYP 1A2 (P05177 whole entry): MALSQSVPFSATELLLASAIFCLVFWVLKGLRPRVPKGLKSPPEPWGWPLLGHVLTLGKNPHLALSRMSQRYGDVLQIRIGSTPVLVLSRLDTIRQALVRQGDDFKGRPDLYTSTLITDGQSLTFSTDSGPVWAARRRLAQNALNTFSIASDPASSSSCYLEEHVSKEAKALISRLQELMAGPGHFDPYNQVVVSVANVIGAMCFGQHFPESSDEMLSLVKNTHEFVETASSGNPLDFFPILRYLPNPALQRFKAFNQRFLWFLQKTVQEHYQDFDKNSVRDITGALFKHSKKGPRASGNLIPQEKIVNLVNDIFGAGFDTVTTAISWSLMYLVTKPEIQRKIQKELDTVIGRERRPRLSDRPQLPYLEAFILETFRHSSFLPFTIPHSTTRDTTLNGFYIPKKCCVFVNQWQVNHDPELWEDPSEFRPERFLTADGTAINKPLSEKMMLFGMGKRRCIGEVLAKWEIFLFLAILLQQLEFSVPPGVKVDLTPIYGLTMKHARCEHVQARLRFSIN

For `CC(C)C[C@@H](C=O)NC(=O)[C@H](CC(C)C)NC(=O)[C@H](CC(C)C)NC(=O)OCc1ccccc1` [MG-132] (Cbz-Leu-Leu-Leu-aldehyde), the “rescue of menin protein level under BAY-155 treatment” value in [1] (MG-132 10 µM with BAY-155 10 µM, 16 h) is given as “fully rescued the menin protein level”.

A word on the IC50: it is the concentration that gives 50% inhibition. Broadly, the Kd is the constant that tells how readily two partners part at equilibrium. For `Cc1c(CN2CCC(Nc3ncnc4sc(CC(F)(F)F)cc34)CC2)ccc2c1cc(C#N)n2Cc1cn[nH]c1` [MI-503], the menin protein levels result in data set [1] (Western blot) is “reduce menin protein levels in a time- and concentration-dependent manner”. Besides, the IC50 is 568 nM in the data set on Jurkat cells; 893 nM in the data set with MOLM-13 cells; greater than 10 µM against CYP 1A2; 2400 nM against CYP 2D6; 800 nM against CYP 2C9; 251 nM in the data set with MV4;11 cells. Moreover, the IC50 was determined as 1000 nM at CYP 3A4, 80 nM at menin-MLL interaction, 672 nM with HL-60 cells and 4 µM at CYP 2C8. Moreover, the “number of tested proteins inhibited by ≥ 50%” value in data set [2] is reported as 28. The “in vivo F Rat” value in “In vivo DMPK in rat” (rat in vivo bioavailability) worked out at 2.7%. For the same molecule, the clearance in “In vivo DMPK in rat” (whole blood, rat in vivo, read-out: in vivo CL blood Rat (converted)) was 25 mL/min/kg. Besides, the “hepatocytes Fmax Rat” value in data set [3] is 48%. In addition, at menin, the dissociation constant Kd was found to be 94 nM.

`CNC(=O)c1ccc(N2C(=S)N(c3ccc(C#N)c(C(F)(F)F)c3)C(=O)C2(C)C)cc1F` [enzalutamide, reference compound]: the “FKBP5 and TMPRSS2 expression ex vivo” value in data set [4] is reported as “significant reduction”. Also, in the data set with VCaP xenograft, the “tumor volume and tumor weight” value is “reduced tumor volume and tumor weight”.

With `CNC(=O)c1cc(Oc2ccc(NC(=O)Nc3ccc(Cl)c(C(F)(F)F)c3)c(F)c2)ccn1` [regorafenib, reference compound], the “tumor volume and weight (anti-growth effects)” value in the data set on RKO xenograft is “pronounced reduction of tumor volume and weight”.

Regarding `CC/C(=C(\c1ccccc1)c1ccc(OCCN(C)C)cc1)c1ccccc1` [tamoxifen, reference compound], in the data set with MCF7 xenograft, the “tumor volume and tumor weight” value was “reduced tumor volume and tumor weight”. Moreover, the “EGR3, GREB1 and PGR1 expression ex vivo” value in [5] is given as “significant reduction”.
